Where a name gives a salt, the structure may show the parent alone.
Key:
[1] = target: T1, Bcl-2 protein (histag-Bcl-2, UniProtKB P10415) (Homo sapiens, UniProt P10415); experiment: Inhibition of Bcl-2 by the fluorescence polarisation technique; assay type: binding; details: fluorescence polarisation, 2 hours incubation; read-out: IC50 (nM) Bcl-2 FP
T1 construct: His tag
Description: The fluorescence polarisation tests were carried out on microplates (384 wells). The Bcl-2 protein, labelled (histag-Bcl-2 such that Bcl-2 corresponds to the UniProtKB® primary accession number: P10415), at a final concentration of 2.50×10^−8 M, is mixed with a fluorescent peptide (Fluorescein-[…]), at a final concentration of 1.00×10^−8M in a buffer solution (Hepes 10 mM, NaCl 150 mM, Tween20 0.05%, pH 7.4), in the presence or absence of increasing concentrations of test compounds. After incubation for 2 hours, the fluorescence polarisation is measured.

[2] = test system: RS4;11 leukaemia tumour line; experiment: In vitro cytotoxicity (MTT) on RS4;11; assay type: cell-based; details: Homo sapiens; RS4;11 cells, 48 hours exposure
Description: The cytotoxicity studies were carried out on the RS4;11 leukaemia tumour line.
The cells are distributed onto microplates and exposed to the test compounds for 48 hours.
The cell viability is then quantified by a colorimetric assay, the Microculture Tetrazolium Assay (Cancer Res., 1987, 47, 939-942).

T1 sequence (P10415 whole entry): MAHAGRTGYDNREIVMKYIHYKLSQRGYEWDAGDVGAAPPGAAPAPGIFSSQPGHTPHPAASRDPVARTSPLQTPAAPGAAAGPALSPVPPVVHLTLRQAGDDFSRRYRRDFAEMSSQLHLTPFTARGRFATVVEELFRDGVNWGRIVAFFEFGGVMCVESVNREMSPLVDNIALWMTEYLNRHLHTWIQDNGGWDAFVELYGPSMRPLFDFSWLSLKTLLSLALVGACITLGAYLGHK

Row | Structure (SMILES) | IC50 [1] | IC50 [2]
1 | C[C@@H]1Cc2ccccc2CN1C(=O)c1cc2c(cc1-c1cc(C(=O)N(c3ccc(O)cc3)c3ccc(CCN4CCC(F)(F)C4)cc3)c3ccccn13)OCO2 [Example 36, N-{4-[2-(3,3-Difluoropyrrolidin-1-yl)ethyl]phenyl}-N-(4-hydroxyphenyl)-3-(6-{[(3R)-3-methyl-3,4-dihydroisoquinolin-2(1,H)-yl]carbonyl}-1,3-benzodioxol-5-yl)indolizine-1-carboxamide hydrochloride] | 12.6 nM | 49.7 nM
2 | NCC[C@@H]1Cc2ccccc2CN1C(=O)c1cc2c(cc1-c1cc(C(=O)N(c3ccccc3)c3ccc(O)cc3)c3n1CCCC3)OCO2 [Example 37, 3-(6-{[(3S)-3-(2-Aminoethyl)-3,4-dihydroisoquinolin-2(1H)-yl]carbonyl}-1,3-benzodioxol-5-yl)-N-(4-hydroxyphenyl)-N-phenyl-5,6,7,8-tetrahydroindolizine-1-carboxamide hydrochloride] | 2.9 nM | 24.7 nM
3 | O=C(c1cc(-c2cc3c(cc2C(=O)N2Cc4ccccc4C[C@H]2CCCN2CCOCC2)OCO3)n2c1CCCC2)N(c1ccccc1)c1ccc(O)cc1 [Example 38, N-(4-Hydroxyphenyl)-3-(6-{[(3R)-3-[3-(morpholin-4-yl)propyl]-3,4-dihydroisoquinolin-2(1H)-yl]carbonyl}-1,3-benzodioxol-5-yl)-N-phenyl-5,6,7,8-tetrahydroindolizine-1-carboxamide hydrochloride] | 4.6 nM | 9.52 nM
4 | Cc1cc(N(C(=O)c2cc(-c3cc4c(cc3C(=O)N3Cc5ccccc5C[C@H]3C)OCO4)n3ccccc23)c2ccc(O)cc2)cc(C)n1 [Example 39, N-(2,6-Dimethylpyridin-4-yl)-N-(4-hydroxyphenyl)-3-(6-{[(3R)-3-methyl-3,4-dihydroisoquinolin-2(1H)-yl]carbonyl}-1,3-benzodioxol-5-yl)indolizine-1-carboxamide hydrochloride] | 4.6 nM | 26.3 nM
5 | C[C@@H]1Cc2ccccc2CN1C(=O)c1cc2c(cc1-c1cc(C(=O)N(c3ccccc3)c3ccc(O)cc3)c3n1CCCC3)OCO2 [Example 40, N-(4-Hydroxyphenyl)-3-(6-{[(3R)-3-methyl-3,4-dihydroisoquinolin-2(1H)-yl]carbonyl}-1,3-benzodioxol-5-yl)-N-phenyl-5,6,7,8-tetrahydroindolizine-1-carboxamide] | 6 nM | 49 nM
6 | O=C(c1cc(-c2cc3c(cc2C(=O)N2Cc4ccccc4C[C@H]2CCN2CCCC(F)(F)C2)OCO3)n2c1CCCC2)N(c1ccccc1)c1ccc(O)cc1 [Example 41, 3-(6-{[(3S)-3-[2-(3,3-Difluoropiperidin-1-yl)ethyl]-3,4-dihydroiso-quinolin-2(1H)-yl]carbonyl}-1,3-benzodioxol-5-yl)-N-(4-hydroxyphenyl)-N-phenyl-5,6,7,8-tetrahydroindolizine-1-carboxamide hydrochloride] | 41.5 nM | 294 nM
7 | C[C@@H]1Cc2ccccc2CN1C(=O)c1cc2c(cc1-c1cc(C(=O)N(c3ccncc3)c3ccc(O)cc3)c3n1CCCC3)OCO2 [Example 42, N-(4-Hydroxyphenyl)-3-(6-{[(3R)-3-methyl-3,4-dihydroisoquinolin-2(1H)-yl]carbonyl}-1,3-benzodioxol-5-yl)-N-(pyridin-4-yl)-5,6,7,8-tetrahydro-indolizine-1-carboxamide hydrochloride] | 5.1 nM | 57.6 nM
8 | O=C(c1cc(-c2cc3c(cc2C(=O)N2Cc4ccccc4C[C@H]2CCNCC(F)F)OCO3)n2c1CCCC2)N(c1ccccc1)c1ccc(O)cc1 [Example 43, 3-(6-{[(3S)-3-{2-[(2,2-Difluoroethyl)amino]ethyl}-3,4-dihydroisoquinolin-2(1H)-yl]carbonyl}-1,3-benzodioxol-5-yl)-N-(4-hydroxyphenyl)-N-phenyl-5,6,7,8-tetrahydroindolizine-1-carboxamide] | 4.8 nM | 26 nM
9 | COC1CN(CC[C@@H]2Cc3ccccc3CN2C(=O)c2cc3c(cc2-c2cc(C(=O)N(c4ccccc4)c4ccc(O)cc4)c4n2CCCC4)OCO3)C1 [Example 44, N-(4-Hydroxyphenyl)-3-(6-{[(3S)-3-[2-(3-methoxyazetidin-1-yl)ethyl]-3,4-dihydroisoquinolin-2(1H)-yl]carbonyl}-1,3-benzodioxol-5-yl)-N-phenyl-5,6,7,8-tetrahydroindolizine-1-carboxamide] | 2.9 nM | 8.56 nM
10 | C[C@@H]1Cc2ccccc2CN1C(=O)c1cc2c(cc1-c1cc(C(=O)N(c3ccc(O)cc3)c3cnn(CCN4CCOCC4)c3)c3ccccn13)OCO2 [Example 45, N-(4-Hydroxyphenyl)-3-(6-{[(3R)-3-methyl-3,4-dihydroisoquinolin-2(1,H)-yl]carbonyl}-1,3-benzodioxol-5-yl)-N-{1-[2-(morpholin-4-yl)ethyl]-1H-pyrazol-4-yl}indolizine-1-carboxamide hydrochloride] | 3.8 nM | 63.8 nM
11 | C[C@@H]1Cc2ccccc2CN1C(=O)c1cc2c(cc1-c1cc(C(=O)N(c3ccc(O)cc3)c3ccncc3F)c3ccccn13)OCO2 [Example 46, N-(3-Fluoropyridin-4-yl)-N-(4-hydroxyphenyl)-3-(6-{[(3R)-3-methyl-3,4-dihydroisoquinolin-2(1H)-yl]carbonyl}-1,3-benzodioxol-5-yl)indolizine-1-carboxamide hydrochloride] | 4.1 nM | 27.9 nM
12 | C[C@@H]1Cc2ccccc2CN1C(=O)c1ccc(Cl)cc1-c1cc(C(=O)N(c2ccc(O)cc2)c2cnn(C)c2)c2n1CCCC2 [Example 47, 3-(5-Chloro-2-{[(3R)-3-methyl-3,4-dihydroisoquinolin-2(1H)-yl]-carbonyl}phenyl)-N-(4-hydroxyphenyl)-N-(1-methyl-1H-pyrazol-4-yl)-5,6,7,8-tetrahydroindolizine-1-carboxamide] | 4.3 nM | 90.1 nM
13 | C[C@@H]1Cc2ccccc2CN1C(=O)c1cc2c(cc1-c1cc(C(=O)N(c3ccc(O)cc3)c3cnn(C)c3)c3n1CCCC3)OCCO2 [Example 48, N-(4-Hydroxyphenyl)-3-(7-{[(3R)-3-methyl-3,4-dihydroisoquinolin-2(1H)-yl]carbonyl}-2,3-dihydro-1,4-benzodioxin-6-yl)-N-(1-methyl-1H-pyrazol-4-yl)-5,6,7,8-tetrahydroindolizine-1-carboxamide] | 3.6 nM | 24.7 nM
14 | C[C@@H]1Cc2ccccc2CN1C(=O)c1ccc(Cl)cc1-c1cc(C(=O)N(c2ccncc2)c2ccc(O)cc2)c2ccccn12 [Example 49, 3-(5-Chloro-2-{[(3R)-3-methyl-3,4-dihydroisoquinolin-2(1H)-yl]-carbonyl}phenyl)-N-(4-hydroxyphenyl)-N-(pyridin-4-yl)indolizine-1-carboxamide hydrochloride] | 3.7 nM | 84.7 nM
15 | CC[C@@H]1Cc2ccccc2CN1C(=O)c1ccc(Cl)cc1-c1cc(C(=O)N(c2ccc(O)cc2)c2cnc3c(ccn3C)c2)c2ccccn12 [Example 50, 3-(5-Chloro-2-{[(3R)-3-ethyl-3,4-dihydroisoquinolin-2(1H)-yl]-carbonyl}phenyl)-N-(4-hydroxyphenyl)-N-(1-methyl-1H-pyrrolo[2,3-b]pyridin-5-yl)indolizine-1-carboxamide] | 2.2 nM | 28.2 nM
16 | C[C@@H]1Cc2ccccc2CN1C(=O)c1cc2c(cc1-c1cc(C(=O)N(c3ccc(O)cc3)c3ccn4ccnc4c3)c3ccccn13)OCO2 [Example 51, N-(4-Hydroxyphenyl)-N-(imidazo[1,2-a]pyridin-7-yl)-3-(6-{[(3R)-3-methyl-3,4-dihydroisoquinolin-2(1H)-yl]carbonyl}-1,3-benzodioxol-5-yl)indolizine-1-carboxamide hydrochloride] | 4.8 nM | 68.8 nM
17 | C[C@@H]1Cc2ccccc2CN1C(=O)c1ccccc1-c1cc(C(=O)N(c2ccc(O)cc2)c2cnc3c(ccn3C)c2)c2ccccn12 [Example 52, N-(4-Hydroxyphenyl)-3-(2-{[(3R)-3-methyl-3,4-dihydroisoquinolin-2(1H)-yl]carbonyl}phenyl)-N-(1-methyl-1H-pyrrolo[2,3-b]pyridin-5-yl)indolizine-1-carboxamide] | 7.9 nM | 20.9 nM
18 | Cc1cn2ccc(N(C(=O)c3cc(-c4cc5c(cc4C(=O)N4Cc6ccccc6C[C@H]4C)OCO5)n4ccccc34)c3ccc(O)cc3)cc2n1 [Example 53, N-(4-Hydroxyphenyl)-3-(6-{[(3R)-3-methyl-3,4-dihydroisoquinolin-2(1H)-yl]carbonyl}-1,3-benzodioxol-5-yl)-N-(2-methylimidazo[1,2-a]pyridin-7-yl)indolizine-1-carboxamide hydrochloride] | 5.4 nM | 70.9 nM
19 | Cc1ccc(N(C(=O)c2cc(-c3cc4c(cc3C(=O)N3Cc5ccccc5C[C@H]3C)OCO4)n3ccccc23)c2ccc(O)cc2)cn1 [Example 54, N-(4-Hydroxyphenyl)-3-(6-{[(3R)-3-methyl-3,4-dihydroisoquinolin-2(1H)-yl]carbonyl}-1,3-benzodioxol-5-yl)-N-(6-methylpyridin-3-yl)indolizine-1-carboxamide hydrochloride] | 6.6 nM | 45 nM
20 | C[C@@H]1Cc2ccccc2CN1C(=O)c1cc2c(cc1-c1cc(C(=O)N(c3ccc(O)cc3)c3cncc(F)c3)c3ccccn13)OCO2 [Example 55, N-(5-Fluoropyridin-3-yl)-N-(4-hydroxyphenyl)-3-(6-{[(3R)-3-methyl-3,4-dihydroisoquinolin-2(1H)-yl]carbonyl}-1,3-benzodioxol-5-yl)indolizine-1-carboxamide] | 5.5 nM | 22.8 nM
